5 molecules from ChEMBL document CHEMBL4476866, “Pyrrol-1-yl benzoic acid derivatives useful as myc inhibitors” (2015) can be followed below.

The source made the active and inactive calls. No cut-off for these calls is given here.

In one assay the test system is MM1.S. The assay can be described thus: Cytotoxic activity against human MM1S cells assessed as reduction in cell viability incubated for 3 days by ATPlite assay. Type of assay: functional, cell-based. The following applies: mm1.s.
Assay [1] deals with T1, Myc proto-oncogene protein (Homo sapiens, UniProt P01106). The assay can be described thus: Inhibition of human c-Myc assessed as reduction in c-Myc/Max/Ebox DNA complex formation using pre-formed complex of c-Myc and biotinylated DNA containing single Ebox-sequence followed by compound addition and further addition of his6-tagged c-Max and incubated for 2 hrs by AlphaScreen assay. The following applies: read-out: IC50. For orientation: In Alpha technology, singlet oxygen from a donor bead excites a nearby acceptor bead.
T1 sequence (P01106 whole entry): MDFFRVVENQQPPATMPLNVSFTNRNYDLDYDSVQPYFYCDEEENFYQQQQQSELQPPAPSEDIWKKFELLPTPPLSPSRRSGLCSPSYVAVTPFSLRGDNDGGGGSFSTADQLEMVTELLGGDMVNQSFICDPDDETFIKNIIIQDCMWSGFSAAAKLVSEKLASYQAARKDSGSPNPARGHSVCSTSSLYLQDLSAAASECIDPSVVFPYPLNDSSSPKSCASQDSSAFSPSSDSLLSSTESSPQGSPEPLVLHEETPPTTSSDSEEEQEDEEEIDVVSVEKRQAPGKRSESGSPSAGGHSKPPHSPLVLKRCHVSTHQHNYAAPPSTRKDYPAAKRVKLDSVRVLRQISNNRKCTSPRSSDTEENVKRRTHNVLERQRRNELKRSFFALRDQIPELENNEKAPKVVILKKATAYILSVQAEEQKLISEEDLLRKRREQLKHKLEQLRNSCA

In assay [2] the test system is NCI-H2171. The assay can be described thus: Cytotoxic activity against human NCI-H2171 cells assessed as reduction in cell viability incubated for 3 days by ATPlite assay. The format is functional, cell-based. The following applies: nci-h2171. On the technique in general: ATP-based viability assays read luminescence as a measure of living cells.
Assay [3] addresses T1, Myc proto-oncogene protein. The assay can be described thus: Inhibition of c-Myc in human NCI-H2171 cells assessed as reduction in c-Myc occupancy at Mat2a binding site at 100 uM incubated for 4 hrs by chromatin immunoprecipitation assay. Type of assay: cell-based.
Assay [4] concerns the target T1, Myc proto-oncogene protein. The assay can be described thus: Inhibition of c-Myc in human NCI-H2171 cells assessed as reduction in c-Myc occupancy at Hnrnpa2b1 binding site at 100 uM incubated for 4 hrs by chromatin immunoprecipitation assay. The format is cell-based.
For assay [5], the target named is T1, Myc proto-oncogene protein. The assay can be described thus: Inhibition of c-Myc in human NCI-H2171 cells assessed as reduction in c-Myc occupancy at Npm1 binding site at 100 uM incubated for 4 hrs by chromatin immunoprecipitation assay. The format is cell-based.
For assay [6], the target named is T1, Myc proto-oncogene protein. As to the kind of experiment: Inhibition of c-Myc in human NCI-H2171 cells assessed as reduction in c-Myc occupancy at Rp123a binding site at 100 uM incubated for 4 hrs by chromatin immunoprecipitation assay. Type of assay: cell-based.
In assay [7] the test system is NCI-H2171. The assay can be described thus: Effect on c-Myc protein levels in human NCI-H2171 cells at 100 uM incubated for 4 hrs by […]. Type of assay: functional, cell-based.
The target of assay [8] is T1, Myc proto-oncogene protein. As to the kind of experiment: Inhibition of human his6-tagged c-Myc assessed as reduction in c-Myc/Max/Ebox DNA complex formation by gel shift based orthogonal biochemical assay. (In general: A gel shift assay detects complexes by their altered migration in electrophoresis.)
Assay [9] relates to NCI-H2171. The assay can be described thus: Induction of cell differentiation in human NCI-H2171 cells assessed as effect on CD11c gene expression at 12.5 to 25 uM incubated for 4 days by qRT-PCR analysis. The format is functional, cell-based.
Assay [10] concerns the target Protein max (Homo sapiens) (UniProt P61244). As to the kind of experiment: Inhibition of Max in human NCI-H2171 cells assessed as reduction in Max occupancy at Mat2a binding site at 100 uM incubated for 4 hrs by chromatin immunoprecipitation assay. Type of assay: cell-based.
The target is the same in assay [11]. As to the kind of experiment: Inhibition of Max in human NCI-H2171 cells assessed as reduction in Max occupancy at Hnrnpa2b1 binding site at 100 uM incubated for 4 hrs by chromatin immunoprecipitation assay. The format is cell-based.
Assay [12] has the same target. As to the kind of experiment: Inhibition of Max in human NCI-H2171 cells assessed as reduction in Max occupancy at Npm1 binding site at 100 uM incubated for 4 hrs by chromatin immunoprecipitation assay. The format is cell-based.
Assay [13] shares this target. As to the kind of experiment: Inhibition of Max in human NCI-H2171 cells assessed as reduction in Max occupancy at Rp123a binding site at 100 uM incubated for 4 hrs by chromatin immunoprecipitation assay. Type of assay: cell-based.
The test system of assay [14] is NCI-H2171. The assay can be described thus: Induction of cell differentiation in human NCI-H2171 cells assessed as effect on CD11c expression at 12.5 to 25 uM incubated for 4 days by FACS analysis. Type of assay: functional, cell-based.
For assay [15], the system named is NCI-H2171. The assay can be described thus: Induction of cell differentiation in human NCI-H2171 cells assessed as effect on CD14 gene expression at 12.5 to 25 uM incubated for 4 days by qRT-PCR analysis. The format is functional, cell-based.
Assay [16] concerns NCI-H2171. As to the kind of experiment: Induction of cell differentiation in human NCI-H2171 cells assessed as effect on CCl4 gene expression at 12.5 to 25 uM incubated for 4 days by qRT-PCR analysis. The format is functional, cell-based.
Assay [17] in a line: Induction of Ebox DNA (unknown origin) intercalation assessed as reduction in c-Myc/Max/Ebox DNA complex formation at 1.7 to 15 uM by gel shift based orthogonal biochemical assay.
Assay [18] in a line: Induction of Ebox DNA (unknown origin) intercalation assessed as reduction in MITF/MITF/Ebox DNA complex formation at 1.7 to 15 uM by gel shift based orthogonal biochemical assay.
The nature of assay [19]: Induction of Ebox DNA (unknown origin) intercalation assessed as reduction in Max/Max/Ebox DNA complex formation at 1.7 to 15 uM by gel shift based orthogonal biochemical assay.

Protein max (Homo sapiens), sequence (P61244 whole entry): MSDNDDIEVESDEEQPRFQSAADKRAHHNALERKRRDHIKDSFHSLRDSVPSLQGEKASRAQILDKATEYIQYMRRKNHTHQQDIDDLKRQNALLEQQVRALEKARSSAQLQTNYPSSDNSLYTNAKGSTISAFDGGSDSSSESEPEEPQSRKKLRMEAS

Take `Cc1ccc(C)n1-c1cc(C(=O)N/N=C/c2ccccc2N2CCOCC2)ccc1C(=O)O`: the EC50 result in the assay on MM1.S and in the assay with NCI-H2171 [2] was “Not Active” throughout. The IC50 in [1] came out at 7.05 µM.
As for `O=C(O)c1ccccc1-n1cccc1`, the inhibition entry in [3], in assay [4], in [5] and in assay [6] was “inactive” throughout.
As to `Cc1ccc(C)n1-c1ccccc1C(=O)O`, the inhibition result (in the assay with NCI-H2171 [7]; in assay [10]; in assay [11]; in assay [12]; in assay [13]) was “inactive” throughout. Further, the inhibition result in assay [3], in [4], in assay [5] and in [6] was “Active” each time. In addition, in [8], the inhibition result was “Dose-dependent effect”. The result with NCI-H2171 [9], in the assay on NCI-H2171 [14], in the assay with NCI-H2171 [15] and in the assay on NCI-H2171 [16] was Active.
Regarding `COc1cccc2c1C(=O)c1c(O)c3c(c(O)c1C2=O)C[C@@](O)(C(=O)CO)C[C@@H]3O[C@H]1C[C@H](N)[C@H](O)[C@H](C)O1`, the result in [17], in assay [18] and in assay [19] was Active.
Turning to `Cc1ccc(C)n1-c1cc(C(=O)O)ccc1C(=O)O`, in [1], the concentration for half-maximal inhibition (IC50) came out at 0.788 µM. Also, the EC50 result with NCI-H2171 [2] was “Not Active”.

One may read the IC50 as the concentration that inhibits the measured activity by half.
